Laboratory results reported in patent US10160748B2 (AbbVie Inc., priority 2015, dated 2018).

Molecular target: TNFα trimer (Homo sapiens, UniProt P01375)
Test: TNFα FP Competitive Binding Assay
Conditions: FP binding assay; 20 nM TNFα trimer, 1 nM OregonGreen488 probe; read-out: TNF IC50
Procedure: TNFα FP Competitive Binding Assay
• 1. Assay Buffer: Prepare 1× Assay Buffer (Water with 47 mM HEPES, 47 mM NaCl, 0.9 mM EDTA, 0.0071% Triton X-100) by adding 25 mL of 1 M HEPES, 5 mL of 5 M NaCl, 1 mL of 0.5 M EDTA, and 375 μL of a 10% Triton X-100 stock to a fresh 500 mL bottle of water. • 2. Assay Mixture: Prepare fresh Assay Mixture containing 20 nM TNFα trimer (60 nM protein) and 1 nM 2′,7′-difluoro-3′,6′-dihydroxy-N-(2-(2-(2-((4-(isoquinolin-8-yl)-3-(4-(isoquinolin-8-yl)phenethoxy)benzyl)oxy)ethoxy)ethoxy)ethyl)-3-oxo-3H-spiro[isobenzofuran-1,9′-xanthene]-5-carboxamide probe in 1× Assay Buffer. Compound Plate Preparation Manual 12-Point 1:3 Dilution Plates: (384 Well Polypropylene Plates)
Top concentration of compounds, 10 mM in DMSO, dispensed in rows A-O in columns 1 and 13. Compounds are serially diluted 1:3 with DMSO in columns 2-12 or 14-24 using a 16-channel Matrix pipettor. Plates stored at −20° C.
Discovery Preps 12-Point 1:3 Dilution Plates: (384 Well Assay Plates)
Top concentration, 5 mM in DMSO, of compounds placed in rows A-O in columns 1 and 13. Compounds are serially diluted 1:3 with DMSO in columns 2-12 or 14-24. Compound solutions are dispensed into replicate assay plates at 410 nL per well. Plates stored at 4° C.
TNFα FP Competitive Binding Assay Protocol
• 1. Compound plates warmed to rt. • 2. Fresh Assay Mixture is prepared. • 3. Assay Mixture (20 μL) is dispensed each well of 384 assay plates using a Thermo Multidrop Combi or 16-channel Matrix pipettor. If Manual 12-point 1:3 Dilution Plates are to be tested, Assay Mix is dispensed into empty plates. Discovery Preps 12-point 1:3 Dilution Plates already contain 410 nL compound solution in DMSO. • 4. For Manual 12-point 1:3 Dilution Plates, 0.7 μL is manually transferred using a 16-channel Matrix pipettor to replicate assay plates containing 20 μL Assay Mixture for a final top compound concentration of 338 μM (3.4% DMSO). • 5. For Discovery Preps 12-point 1:3 Dilution Plates, 20 μL Assay Mixture added the 410 nL compound solution already in the plates yields a final top compound concentration of 100 μM (2.0% DMSO). • 6. Background subtraction controls are wells P1-P8 containing only Assay Buffer. The low % inhibition controls are wells P9-P16 containing only Assay Mix. The high % inhibition are wells P17-P24 containing only 1 nM 2′,7′-difluoro-3′,6′-dihydroxy-N-(2-(2-(2-((4-(isoquinolin-8-yl)-3-(4-(isoquinolin-8-yl)phenethoxy)benzyl)oxy)ethoxy)ethoxy)ethyl)-3-oxo-3H-spiro[isobenzofuran-1,9′-xanthene]-5-carboxamide probe in 1× Assay Buffer. • 7. Plates are incubated at rt for 18-24 h in 37° C. incubator (CO2 is off). • 8. Prior to reading the assay, the plates are placed in a dark cabinet to equilibrate at rt for one hour. • 9. Background-subtracted fluorescence polarization (mP) is measured using a PerkinElmer Envision plate reader. • 10. Raw data is entered into Assay Explorer and dose-response curves are generated using a variable slope curve. Supplies, Materials, and Reagents

Chain of TNFα trimer (P01375 77-233 limits assumed): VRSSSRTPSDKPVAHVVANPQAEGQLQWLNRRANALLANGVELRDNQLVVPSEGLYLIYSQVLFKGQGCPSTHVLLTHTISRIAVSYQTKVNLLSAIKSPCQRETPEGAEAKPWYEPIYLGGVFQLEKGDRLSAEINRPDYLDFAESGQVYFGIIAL

SMILES | IC50 [µM]
Cn1c(=O)c2ccc(-c3cnc(N4CCOC(C)(C)C4)nc3)cc2n1Cc1ccccc1OC(F)F [Example 2, 1-(2-(Difluoromethoxy)benzyl)-6-(2-(2,2-dimethylmorpholino)pyrimidin-5-yl)-2-methyl-1H-indazol-3(2H)-one] | < 1
Cn1c(=O)c2ccc(-c3cnc(N4CCN(C(N)=O)CC4)nc3)cc2n1Cc1ccccc1OC(F)F [Example 2.1] | < 1
COC[C@H]1CCCN1c1ncc(-c2ccc3c(=O)n(C)n(Cc4ccccc4OC(F)F)c3c2)cn1 [Example 2.2] | < 1
CC(=O)N1CCN(c2ncc(-c3ccc4c(=O)n(C)n(Cc5ccccc5OC(F)F)c4c3)cn2)CC1 [Example 2.3] | < 1
Cn1c(=O)c2ccc(-c3cnc(N4CC5(COC5)C4)nc3)cc2n1Cc1ccccc1OC(F)F [Example 2.4] | 1 to 10
Cn1c(=O)c2ccc(-c3cnc(N4CC[C@@H](O)C4)nc3)cc2n1Cc1ccccc1OC(F)F [Example 2.5] | > 10
Cn1c(=O)c2ccc(-c3cnc(N4CC[C@@H](C(=O)O)C4)nc3)cc2n1Cc1ccccc1OC(F)F [Example 2.6] | > 10
Cn1c(=O)c2ccc(-c3cnc(NCC4CNC(=O)C4)nc3)cc2n1Cc1ccccc1OC(F)F (stereo not shown) [Example 2.7] | 1 to 10
Cn1c(=O)c2ccc(-c3cnc(N4CC(C5COC5)C4)nc3)cc2n1Cc1ccccc1OC(F)F [Example 2.8] | 1 to 10
Cn1c(=O)c2ccc(-c3cnc(N4CC(O)C4)nc3)cc2n1Cc1ccccc1OC(F)F [Example 2.9] | 1 to 10
Cn1c(=O)c2ccc(-c3cnc(NC4COC4)nc3)cc2n1Cc1ccccc1OC(F)F [Example 2.10] | 1 to 10
Cn1c(=O)c2ccc(-c3cnc(N4CC(CO)C4)nc3)cc2n1Cc1ccccc1OC(F)F [Example 2.11] | 1 to 10
Cn1c(=O)c2ccc(-c3cnc(NCCO)nc3)cc2n1Cc1ccccc1OC(F)F [Example 2.12] | 1 to 10
Cn1c(=O)c2ccc(-c3cnc(N4CC(C(=O)O)C4)nc3)cc2n1Cc1ccccc1OC(F)F [Example 2.13] | > 10
Cn1c(=O)c2ccc(-c3cnc(N4CC5(CC5C(=O)O)C4)nc3)cc2n1Cc1ccccc1OC(F)F (stereo not shown) [Example 2.14] | > 10
Cn1c(=O)c2ccc(-c3cnc(N4CC[C@H](C(=O)O)C4)nc3)cc2n1Cc1ccccc1OC(F)F [Example 2.15] | > 10
CN1CC(CNc2ncc(-c3ccc4c(=O)n(C)n(Cc5ccccc5OC(F)F)c4c3)cn2)CC1=O (stereo not shown) [Example 2.16] | 1 to 10
Cn1c(=O)c2ccc(-c3cnc(N4CC5(CC(C(=O)O)C5)C4)nc3)cc2n1Cc1ccccc1OC(F)F [Example 2.17] | 1 to 10

SMILES | IC50 [µM]
Cn1c(=O)c2ccc(-c3cnc(N4CC(CC(=O)O)C4)nc3)cc2n1Cc1ccccc1OC(F)F [Example 2.18] | > 10
Cn1c(=O)c2ccc(-c3cnc(NC4CCCCNC4=O)nc3)cc2n1Cc1ccccc1OC(F)F (stereo not shown) [Example 2.19] | 1 to 10
Cn1c(=O)c2ccc(-c3cnc(NC4CCOC4)nc3)cc2n1Cc1ccccc1OC(F)F (stereo not shown) [Example 2.20] | 1 to 10
Cn1c(=O)c2ccc(-c3cnc(NC4CCCOC4)nc3)cc2n1Cc1ccccc1OC(F)F (stereo not shown) [Example 2.21] | 1 to 10
COCCCNc1ncc(-c2ccc3c(=O)n(C)n(Cc4ccccc4OC(F)F)c3c2)cn1 [Example 2.22] | 1 to 10
Cn1c(=O)c2ccc(-c3cnc(N4CCN5C(=O)CCC5C4)nc3)cc2n1Cc1ccccc1OC(F)F (stereo not shown) [Example 2.23] | < 1
Cn1c(=O)c2ccc(-c3cnc(N[C@@H]4CCOC4)nc3)cc2n1Cc1ccccc1OC(F)F [Example 2.24] | 1 to 10
Cn1c(=O)c2ccc(-c3cnc(N4CCN5C(=O)OC[C@H]5C4)nc3)cc2n1Cc1ccccc1OC(F)F [Example 2.25] | < 1
Cn1c(=O)c2ccc(-c3cnc(N4CCN5C(=O)OC[C@@H]5C4)nc3)cc2n1Cc1ccccc1OC(F)F [Example 2.26] | < 1
Cn1c(=O)c2ccc(-c3cnc(N4CCN5C(=O)NCC5C4)nc3)cc2n1Cc1ccccc1OC(F)F (stereo not shown) [Example 2.27, 7-(5-(1-(2-(Difluoromethoxy)benzyl)-2-methyl-3-oxo-2,3-dihydro-1H-indazol-6-yl)pyrimidin-2-yl)hexahydroimidazo[1,5-a]pyrazin-3(2H)-one] | < 1
Cn1c(=O)c2ccc(-c3cnc(N4CCC(c5nsc(=O)[nH]5)CC4)nc3)cc2n1Cc1ccccc1OC(F)F [Example 2.28] | 1 to 10
CC(=O)N1CC[C@H](Nc2ncc(-c3ccc4c(=O)n(C)n(Cc5ccccc5OC(F)F)c4c3)cn2)C1 [Example 3, (S)-6-(2-((1-Acetylpyrrolidin-3-yl)amino)pyrimidin-5-yl)-1-(2-(difluoromethoxy)benzyl)-2-methyl-1H-indazol-3(2H)-one] | 1 to 10
Cn1c(=O)c2ccc(-c3cc(N4CCOCC4)ncc3Cl)cc2n1Cc1cccc(F)c1 [Example 3.1] | > 10
Cn1c(=O)c2ccc(-c3cnc(CN4CC(C(=O)O)C4)nc3)cc2n1Cc1ccccc1OC(F)F [Example 4, 1-((5-(1-(2-(Difluoromethoxy)benzyl)-2-methyl-3-oxo-2,3-dihydro-1H-indazol-6-yl)pyrimidin-2-yl)methyl)azetidine-3-carboxylic acid] | > 10
Cn1c(=O)c2ccc(-c3cc(N4CCOCC4)ncc3Cl)cc2n1Cc1ccccc1OC(F)F [Example 4.1] | > 10
Cn1c(=O)c2ccc(-c3cnc(N4CCOCC4)nc3)cc2n1Cc1ccccc1OC(F)F [Example 5, 1-(2-(Difluoromethoxy)benzyl)-2-methyl-6-(2-morpholinopyrimidin-5-yl)-1H-indazol-3(2H)-one] | < 1
Cn1c(=O)c2ccc(-c3cnc(N4CCOCC4)nc3)cc2n1Cc1cc(CO)ccc1OC(F)F [Example 9, 1-(2-(Difluoromethoxy)-5-(hydroxymethyl)benzyl)-2-methyl-6-(2-morpholinopyrimidin-5-yl)-1H-indazol-3(2H)-one] | < 1
CCn1c(=O)c2ccc(-c3cnc(N4CCOCC4)nc3)cc2n1Cc1ccccc1OC(F)F [Example 10, 1-(2-(Difluoromethoxy)benzyl)-2-ethyl-6-(2-morpholinopyrimidin-5-yl)-1H-indazol-3(2H)-one] | 1 to 10

Results, then the molecule that gave them:

IC50 [µM] | SMILES
1 to 10 | Cn1c(=O)c2ccc(-c3cnc(N4CCNC(=O)C4)nc3)cc2n1Cc1ccccc1OC(F)F [Example 5.1]
1 to 10 | Cn1c(=O)c2ccc(-c3ccc(N4CCOCC4)nc3)cc2n1Cc1ccccc1OC(F)F [Example 5.2]
1 to 10 | Cn1c(=O)c2ccc(-c3ccc(N4CCNC(=O)C4)nc3)cc2n1Cc1ccccc1OC(F)F [Example 5.3]
1 to 10 | COc1ncc(-c2ccc3c(=O)n(C)n(Cc4ccccc4OC(F)F)c3c2)cn1 [Example 5.4]
1 to 10 | Cn1c(=O)c2ccc(-c3cnc(N4CCC(C(=O)O)CC4)nc3)cc2n1Cc1ccccc1OC(F)F [Example 5.5]
> 10 | Cn1c(=O)c2ccc(-c3ccnc(N4CCOCC4)c3)cc2n1Cc1ccccc1OC(F)F [Example 5.6]
> 10 | Cn1c(=O)c2ccc(-c3cnn(C4CCOCC4)c3)cc2n1Cc1ccccc1OC(F)F [Example 5.7]
> 10 | O=c1[nH]n(Cc2ccccc2OC(F)F)c2cc(-c3cnc(N4CCOCC4)nc3)ccc12 [Example 6.1, 1-(2-(difluoromethoxy)benzyl)-6-(2-morpholinopyrimidin-5-yl)-1H-indazol-3(2H)-one]
< 1 | Cn1c(=O)c2ccc(-c3cnc(N4CCOCC4)nc3)cc2n1Cc1cc(Cl)ccc1Cl [Example 7.1]
1 to 10 | Cn1c(=O)c2ccc(-c3cnc(N4CCC(C(=O)O)CC4)nc3)cc2n1Cc1cc(Cl)ccc1Cl [Example 7.2]
1 to 10 | Cn1c(=O)c2ccc(-c3cnc(N4CCOCC4)nc3)cc2n1Cc1c(Cl)cccc1Cl [Example 8.1]
1 to 10 | Cn1c(=O)c2ccc(-c3cnc(N4CCNC(=O)C4)nc3)cc2n1Cc1c(Cl)cccc1Cl [Example 8.2]
> 10 | O=c1[nH]n(Cc2cc(Cl)ccc2Cl)c2cc(-c3cnc(N4CCOCC4)nc3)ccc12 [Example 9.1]
